Structures can show the parent of a compound that is named as a salt.

Assay [1] deals with KIT activation loop mutations that involve residues other than aspartic acid 816. The conditions noted are these: cited from earlier work.
Assay [2] has as its system KIT activating mutations involving the extracellular, juxtamembrane and TK1 domain. The conditions noted are these: cited from earlier work.
For another assay, the target named is wild-type KIT (Homo sapiens, UniProt P10721). The conditions noted are these: cited from earlier work.
wild-type KIT, sequence (P10721 26-976): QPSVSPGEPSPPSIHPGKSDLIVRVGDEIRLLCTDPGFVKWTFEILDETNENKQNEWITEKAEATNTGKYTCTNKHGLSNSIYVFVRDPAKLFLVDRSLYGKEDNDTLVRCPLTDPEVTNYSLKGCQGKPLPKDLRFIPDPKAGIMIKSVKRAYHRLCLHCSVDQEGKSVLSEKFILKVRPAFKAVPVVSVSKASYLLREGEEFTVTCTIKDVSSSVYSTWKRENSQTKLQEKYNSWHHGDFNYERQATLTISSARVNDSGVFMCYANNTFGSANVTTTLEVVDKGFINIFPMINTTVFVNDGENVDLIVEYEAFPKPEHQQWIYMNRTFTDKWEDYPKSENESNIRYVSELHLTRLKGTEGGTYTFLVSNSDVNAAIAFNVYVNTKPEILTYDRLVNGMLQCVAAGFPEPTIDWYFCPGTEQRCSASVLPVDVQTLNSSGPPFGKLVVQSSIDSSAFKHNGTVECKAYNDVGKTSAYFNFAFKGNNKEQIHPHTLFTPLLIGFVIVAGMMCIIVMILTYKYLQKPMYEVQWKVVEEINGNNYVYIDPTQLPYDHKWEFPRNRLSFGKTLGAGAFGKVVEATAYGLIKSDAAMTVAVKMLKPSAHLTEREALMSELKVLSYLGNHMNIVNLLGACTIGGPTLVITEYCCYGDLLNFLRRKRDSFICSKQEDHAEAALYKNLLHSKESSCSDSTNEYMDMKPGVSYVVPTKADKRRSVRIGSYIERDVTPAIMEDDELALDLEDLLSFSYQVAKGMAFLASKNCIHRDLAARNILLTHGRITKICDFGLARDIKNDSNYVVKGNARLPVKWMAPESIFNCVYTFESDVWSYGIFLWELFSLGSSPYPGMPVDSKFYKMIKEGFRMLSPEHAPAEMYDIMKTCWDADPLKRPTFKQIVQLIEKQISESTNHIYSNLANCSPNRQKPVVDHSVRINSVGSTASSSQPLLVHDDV
Assay [3] concerns KIT D816 mutations (D816V, D816Y, D816F, D816H). The note with it: or equivalent D814 residue in murine KIT; cited from earlier work.
The next assay deals with CHO cells. The assay can be described thus: Tyrosine phosphorylation of wild-type and mutant PDGFRA transiently expressed in CHO cells (immunoblot). Format: cell-based, Chinese hamster. The conditions noted are these: for change of tyrosine phosphorylation by ligand stimulation: CHO cells, 100 ng/ml recombinant human PDGF-AA for 10 minutes; for baseline tyrosine phosphorylation: transient expression in CHO cells, serum starved overnight, vehicle. How it is done: FIG. 8: DGFRA mutations in GISTs result in constitutive activation of PDGFRA kinase. […] CHO cells were transiently transfected with expression vectors encoding cDNAs for wild-type or mutant PDGFRA. Transfected cells were serum starved overnight and treated with vehicle or ligand (recombinant human PDGF-AA) for 10 minutes. Whole cell lysates were immunostained sequentially for phospho-tyrosine and PDGFRA. […] In contrast, the mutant PDGFRA proteins display ligand-independent phosphorylation.
PDGFRA mutations were cloned by site-directed mutagenesis of the wild type PDGFRA cDNA. CHO cells were transiently transfected with expression vectors encoding for mutant or wild-type PDGFRA cDNA. Transfected cells were serum starved overnight and stimulated with vehicle or 100 ng/ml recombinant human PDGF-AA for 10 minutes before harvesting cells and preparing whole cell lysates for immunoblotting. The membranes were sequentially immunoblotted with antiserum against phosphorylated tyrosines (PY20 Transduction Laboratories) or total PDGFRA (Santa Cruz sc-338).
A general note: A western blot detects proteins with antibodies after separation by electrophoresis.

`Cc1ccc(NC(=O)c2ccc(CN3CCN(C)CC3)cc2)cc1Nc1nccc(-c2cccnc2)n1` [imatinib mesylate]: the “activity against other KIT activation loop mutations” value in assay [1] is recorded as “some activity”. Moreover, the “activity against KIT activating mutations involving the extracellular, juxtamembrane and TK1 domain” value in assay [2] is “highly active”. Moreover, on wild-type KIT, the “activity against the kinase activity of wild-type KIT” value is listed as “highly active”. Moreover, the “activity against KIT D816 mutations” value in assay [3] is on record as “no clinically useful activity”.
In the case of “non-mutant PDGFRA: human PDGFRA protein, SEQ ID NO: 2”, in the assay with CHO cells, the “change of tyrosine phosphorylation by ligand stimulation” value is listed as “substantially increased” and the baseline tyrosine phosphorylation entry is “weak”. In the assay with CHO cells (listed as Wild type PDGFRA), the “change of tyrosine phosphorylation by ligand stimulation” value is “upregulated” and the baseline tyrosine phosphorylation result is “low-level phosphorylation”.
